Test results from paper PMC3085948 (Journal of medicinal chemistry, 2011).

Key:
[1] = test system: endogenous lipid amide levels (anandamide, PEA, OEA, 2-AG, arachidonic acid); conditions: for effect on endogenous levels of 2-AG / effect on endogenous levels of arachidonic acid / effect on endogenous levels of key lipid amides (anandamide, PEA) / site of effect on lipid levels (brain vs liver): 30 mg/kg i.p., single mouse; for brain lipid amide levels, oral versus intraperitoneal dosing: p.o. 50 mg/kg vs i.p. 30 mg/kg, 3 mice per group
[2] = test system: acute thermal pain; assay type: in vivo, mice; conditions: i.v. administration
[3] = test system: human ether-a-go-go related gene (hERG); conditions: background statement; cited from earlier work
[4] = test system: human FAAH; assay: FAAH inhibition, human FAAH from transfected COS-7 cells; assay type: biochemical; conditions: active (S)-enantiomers; hFAAH vs rFAAH
[5] = Rat or human liver microsome stability; conditions: rat, human, microsomes
[6] = test system: cannabinoid (CB1 or CB2) or vanilloid receptors; conditions: background statement; cited from earlier work
[7] = test system: FAAH knockout mice; conditions: cited from earlier work
[8] = test system: common P450 metabolism enzymes; conditions: background statement; cited from earlier work
[9] = in vivo; cited from earlier work
[10] = target: T1, rat FAAH (Rattus norvegicus, UniProt P97612); assay type: biochemical
T1 sequence (P97612 30-579 limits assumed): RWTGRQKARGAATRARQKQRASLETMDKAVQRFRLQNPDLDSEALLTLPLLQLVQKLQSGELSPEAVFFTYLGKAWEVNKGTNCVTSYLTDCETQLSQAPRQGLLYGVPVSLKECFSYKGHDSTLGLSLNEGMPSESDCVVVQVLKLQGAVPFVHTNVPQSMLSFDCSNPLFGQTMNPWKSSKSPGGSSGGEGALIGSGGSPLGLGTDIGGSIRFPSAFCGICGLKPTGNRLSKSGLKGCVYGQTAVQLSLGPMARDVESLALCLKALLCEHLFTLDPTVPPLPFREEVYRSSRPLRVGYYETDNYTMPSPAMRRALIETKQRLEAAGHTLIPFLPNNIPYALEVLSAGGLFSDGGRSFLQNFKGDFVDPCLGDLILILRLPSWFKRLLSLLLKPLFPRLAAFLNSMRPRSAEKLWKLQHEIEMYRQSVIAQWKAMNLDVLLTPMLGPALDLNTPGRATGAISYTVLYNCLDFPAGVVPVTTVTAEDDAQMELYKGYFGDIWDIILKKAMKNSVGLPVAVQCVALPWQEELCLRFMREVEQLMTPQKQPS

[11] = test system: chronic constriction injury (CCI) neuropathic pain; assay: CCI acetone-induced cold allodynia; assay type: in vivo, mice; conditions: 50 mg/kg p.o.
[12] = assay type: in vivo; conditions: 50 mg/kg oral, data not shown
[13] = test system: chronic constriction injury (CCI) neuropathic pain; assay: CCI mechanical allodynia; assay type: in vivo, mice; conditions: 50 mg/kg p.o.

| Compound | effect on endogenous levels of 2-AG ([1]; 1 h) | effect on endogenous levels of arachidonic acid ([1]; 1 h) | effect on endogenous levels of key lipid amides (anandamide, PEA) ([1]; 1 h) | duration of effect [2] [min] | activity against human versus rat FAAH [4] | half-life [5] [min] | mode of inhibition (Lineweaver–Burk analysis) [10] | site of effect on lipid levels (brain vs liver) ([1]; 1 h) | brain lipid amide levels, oral versus intraperitoneal dosing [1] | further results |
| --- | --- | --- | --- | --- | --- | --- | --- | --- | --- | --- |
| O=C(c1ncc(-c2ccccn2)o1)C1Cc2ccc(Oc3ccccc3)cc2C1 (stereo not shown) [Compound 27] | without impacting | minimal impact | increased |  |  |  |  |  |  |  |
| CN1CC[C@]23c4c5ccc(O)c4O[C@H]2[C@@H](O)C=C[C@H]3[C@H]1C5 [morphine, reference compound] |  |  |  | 150 |  |  |  |  |  |  |
| O=C(CCCCCCc1ccccc1)c1ncc(-c2ccccn2)o1 [Compound 2] |  |  |  |  | no significant distinction | 2 to 4 |  |  |  | inhibition of hERG [3]: does not significantly inhibit; binding to cannabinoid (CB1 or CB2) or vanilloid receptors [6]: does not bind; antinociception in FAAH knockout mice [7]: does not produce antinociception; inhibition of common P450 metabolism enzymes [8]: does not significantly inhibit; time to establish ketone/alcohol steady state equilibrium [9]: ≤ 15 min |
| O=C(c1ncc(-c2ccccn2)o1)C1CCc2cc(OCc3ccccc3)ccc2C1 (stereo not shown) [Compound 18] |  |  |  |  |  | 12 to 15 |  |  |  |  |
| O=C(O)c1cccc(-c2cnc(C(=O)C3CCc4cc(Oc5ccccc5)ccc4C3)o2)n1 (stereo not shown) [Compound 14, 6-(2-(6-Phenoxy-1,2,3,4-tetrahydronaphthalene-2-carbonyl)oxazol-5-yl)picolinic Acid] |  |  |  | 150 | 4 fold |  | reversible, competitive inhibitors | principally seen peripherally (liver) | matched and even improved on the results observed with i.p. administration | time of maximal effect [2]: 30 to 60 min; maximal antinociceptive effect (efficacy) ([2]; tail flick 52 °C): same maximal effect (efficacy) observed with morphine |
| O=C(c1ncc(-c2ccccn2)o1)C1CCc2cc(Oc3ccccc3)ccc2C1 (stereo not shown) [Compound 12, (6-Phenoxy-1,2,3,4-tetrahydronaphthalen-2-yl)(5-(pyridin-2-yl)oxazol-2-yl)methanone] | without impacting | minimal impact | increased |  | no significant distinction |  | reversible, competitive inhibitors | observed both in the brain (CNS) and liver (peripheral) | matched and even improved on the results observed with i.p. administration | cold allodynia, control paws [11]: no effect; cold allodynia, paws ipsilateral to CCI surgery [11]: significantly attenuated; duration of effect on cold allodynia [11]: > 9 h; cannabimimetic side effects [12]: did not produce catalepsy, hypothermia, or hypomotility; duration of effect on mechanical allodynia [13]: > 6 h; mechanical allodynia, control paws [13]: no effect; mechanical allodynia, paws ipsilateral to CCI surgery [13]: significantly attenuated; time of peak brain anandamide levels ([1]; 50 mg/kg p.o.): 1.5 to 3 h; duration of elevation of brain N-acylethanolamines ([1]; 50 mg/kg p.o., time course up to 9 h): ≥ 9 h; increase in brain levels of PEA and OEA ([1]; p.o. 10, 25 and 50 mg/kg, 1 h): 5.5–7.8 fold; increase in brain anandamide levels ([1]; p.o. 25–50 mg/kg, 1 h): 12–13 fold |
